Laboratory results taken from US20260101898A1, “SULFONAMIDE COMPOUND AND HARMFUL-ARTHROPOD CONTROLLING COMPOSITION CONTAINING SAME” (SUMITOMO CHEMICAL COMPANY, LIMITED, priority 2022, published 2026).

Key:
Type in all cases: in vivo
[1] = system: common cutworm (Spodoptera litura); experiment: Test Method 3: sprayed cabbage seedling, second-instar larvae of common cutworm; conditions: 120 h, spray 20 mL/seedling, after 5 days
Procedure: (§1) Each test compound is made to a formulation according to a similar method to that described in the Formulation Example 1, and thereto is added water containing 0.03 v/v % of Shindain (registered trademark) to prepare a diluted solution containing a prescribed concentration of the test compound.
(§2) Cabbage (Brassicae oleracea) seedling (on the developmental stage of the second to third true leaf) is planted in a container, and the diluted solutions are sprayed to the seedling at a ratio of 20 mL/seedling. Thereafter, the aerial part of the seedling is cut out and then is installed into a container in which a filter paper is placed at the bottom of the container. Five of second-instar larvae of common cutworm (Spodoptera litura) are released into the container. After 5 days, the number of the surviving insects is counted, and the mortality of insects is calculated by the following equation.

[2] = system: cotton aphids (Aphis gossypii); experiment: Test Method 2: soil drench of cucumber seedling, cotton aphids released after 7 days; conditions: drench 5 mL/seedling, examined after 6 days
Procedure: Each test compound is made to a formulation according to a similar method to that described in the Formulation Example 5, and thereto is added water to prepare a diluted solution containing a prescribed concentration of the test compound. Cucumber (Cucumis sativus) seedling (on the developmental stage of the second true leaf) is planted in a container, and the diluted solutions are drenched to the bottom of the seedling at a ratio of 5 mL/seedling. After 7 days, approximately 30 cotton aphids (Aphis gossypii) (all developmental stages of life) are released onto the leaf of the seedling. After 6 days, the number of the surviving insects is examined and the controlling value is calculated by the following equation. [formula] wherein the symbols in the formula represent the following descriptions. • Cb: Number of the test insects in untreated group; • Cai: Number of the surviving insects at the time of the investigation in untreated group; • Tb: Number of the test insects in treated group; • Tai: Number of the surviving insects at the time of the investigation in treated group; Here the “untreated group” represents a group where the similar treatment procedure to that of the treated group except not using the test compound is done.

[3] = system: diamondback moth (Plutella xylostella); experiment: Test Method 10: sprayed cabbage seedling, third-instar larvae of diamondback moth (formulation per Formulation Example 5); conditions: 120 h, spray 20 mL/seedling, after 5 days
Procedure: (§3) Each test compound is made to a formulation according to a similar method to that described in the Formulation Example 5, and thereto is added water containing 0.03 v/v % of Shindain (registered trademark) to prepare a diluted solution containing a prescribed concentration of the test compound.
(§4) Cabbage (Brassicae oleracea) seedling (on the developmental stage of the third to fourth true leaf) is planted in a container, and the diluted solutions are sprayed to the seedling at a ratio of 20 mL/seedling. Thereafter, ten of third-instar larvae of diamondback moth (Plutella xylostella) are released. After 5 days, the number of the surviving insects is counted, and the mortality of insects is calculated by the following equation.

[4] = system: diamondback moth (Plutella xylostella); experiment: Test Method 4: sprayed cabbage seedling, second-instar larvae of diamondback moth; conditions: 120 h, spray 20 mL/seedling, after 5 days
Procedure: as §1
as §2, with “diamondback moth (Plutella xylostella)” for “common cutworm (Spodoptera litura)”

[5] = system: common cutworm (Spodoptera litura); experiment: Test Method 9: sprayed cabbage seedling, third-instar larvae of common cutworm (formulation per Formulation Example 5); conditions: 144 h, spray 20 mL/seedling, after 6 days
Procedure: as §3
as §4, with “common cutworm (Spodoptera litura)” for “diamondback moth (Plutella xylostella)”, “6” for “5”

[6] = system: housefly (Musca domestica); experiment: Test Method 8: coated glass vial, housefly female adults; conditions: 40 mg/m^2 coated vial, 1 day
Procedure: An acetone solution which is adjusted to 800 ppm of each test compound is poured into a 20 mL glass vial, and the test compound is coated uniformly on inner face of the vial so as to 40 mg/m^2 of the test compound treated, and the vial is then dried.
5 housefly (Musca domestica) female adults are released into the treated vial, and the vial is then covered with lid. After the prescribed time, the state of the housefly is examined, and the mortality is calculated by the following equation.

[7] = system: Western corn rootworm (Diabrotica virgifera virgifera); experiment: Test Method 5: corn seedling dip, second-instar larvae of Western corn rootworm; conditions: 120 h, corn seedling immersed 30 seconds, after 5 days
Procedure: Each 1 mg of the test compounds is dissolved in 50 μL of a mixed solution consisting of 5% of polyoxyethylene sorbitan mono-cocoate and 95% of acetone by volume ratio. Thereto is added water containing 0.03% by volume of Shindain (registered trademark) to prepare a diluted solution containing a prescribed concentration of the test compound.
A young seedling of corn (Zea mays) is immersed into the diluted solution for 30 seconds. Thereafter, two seedlings are installed in a plastic petri dish ([…]), and 10 of second-instar larvae of Western corn rootworm (Diabrotica virgifera virgifera) are released into the dish. After 5 days, the number of the dead insects is counted, and the mortality of insects is calculated by the following equation.

[8] = system: German cockroach (Blattella germanica); experiment: Test Method 6: coated glass vial, German cockroach male adults; conditions: 40 mg/m^2 coated vial, 3 days
Procedure: An acetone solution which is adjusted to 800 ppm of each test compound is poured into a 50 mL glass vial, and the test compound is coated uniformly on inner face of the vial so as to 40 mg/m^2 of the test compound treated, and the vial is then dried.
5 German cockroach (Blattella germanica) male adults are released into the treated vial, and the vial is then covered with lid. After the prescribed time, the state of the German cockroach is examined, and the mortality is calculated by the following equation.

Structure (SMILES) | mortality at 500 ppm [1] [%] | controlling value ([2]; 250 ppm) [%] | controlling value ([2]; 1000 ppm) [%] | mortality at 50 ppm [3] [%] | mortality at 200 ppm [3] [%] | mortality at 500 ppm [4] [%] | mortality at 200 ppm [5] [%] | mortality [6] [%] | mortality at 200 ppm [7] [%] | mortality [8] [%]
CN(C)S(=O)(=O)c1c(-n2nc3ccc(C(F)(F)F)cn3c2=O)nc2ccc(Br)cn12 [Present compound 2] | ≥ 80 | 100 | 100 | ≥ 80 | ≥ 80 | ≥ 80 | ≥ 80 | – | – | –
CN(C)S(=O)(=O)c1cc(Br)cnc1-n1nc2ccc(C(F)(F)F)cn2c1=O [Present compound 1] | – | – | – | – | ≥ 80 | ≥ 80 | – | – | – | –
CNS(=O)(=O)c1c(-c2nc3cc(C(F)(F)F)cnc3[nH]2)nc2ccc(C(F)(F)F)cn12 [Present compound 3] | ≥ 80 | – | – | ≥ 80 | ≥ 80 | ≥ 80 | ≥ 80 | 100 | 100 | 100
